According to patent US9814696B2, “Use of coumarin derivatives for the preparation of drugs for treating skin diseases” (UNIVERSITE PIERRE ET MARIE CURIE (PARIS 6), priority 2011, dated 2017):
Where two headings read alike, the source gives them in different places.

How the values were obtained:
[1] = test system: normal human keratinocytes; assay: Neutral red uptake (NRU) cytotoxicity test / cell viability; assay type: cell-based; set-up: cytotoxicity, neutral red uptake test (FIG. 5): dose or concentration left out as unconfirmed; conditions: 48 h; for cytotoxicity, neutral red uptake test (FIG. 5) / cytotoxicity, neutral red uptake test: human normal keratinocytes; for cytotoxicity, neutral red uptake test: 1 and 10 μM; for Toxicity, neutral red uptake test: normal human keratinocytes
Source text: The NRU cytotoxicity assay procedure is a cell survival/viability chemosensitivity assay based on the ability of viable cells to incorporate and bind neutral red (NR), a supravital dye. NR is a weak cationic dye that readily penetrates cell membranes by non-ionic diffusion and accumulates intracellularly in lysosomes. Alterations of the cell surface or the sensitive lysosomal membrane lead to lysosomal fragility and other changes that gradually become irreversible. Such changes caused by the action of xenobiotics result in a decreased uptake and binding of NR. It is thus possible to distinguish between viable, damaged, or dead cells, which is the basis of this assay. After treatment with the small-molecules inhibitors, NR uptake in cells will be measured by spectrophotometry at 540±10 nm.
Keratinocytes from healthy persons or patients with Netherton syndrome are seeded at the density of 4000 cells in 125 μL of medium per well in 96-well plates.
After seeding, cells are incubated for 48 hours in the following experimental conditions: 37° C.±1° C., 90%±5.0% humidity, and 5%±1% CO2/air. This incubation period allows for cell recovery and adherence and progression to exponential growth phase.
Prepare inhibitors solutions 2-fold more concentrated than desired. Add 125 μL of these solutions to the wells without changing or removing the medium (125 μL).
48 h hours after the beginning of the treatment, carefully remove the medium (containing the tested inhibitor) and rinse the cells very carefully with 250 μL pre-warmed PBS.
Add 250 μL NR medium and incubate (37° C.±1° C., 90%±5% humidity, and 5.0%±1% CO2/air) for 3±0.1 h. NR medium is the culture medium containing 33 μg/mL of NR. After incubation, remove the NR medium, and carefully rinse cells with 250 μL pre-warmed PBS.
Measure the absorption (within 60 minutes after adding NR Desorb solution) of the resulting colored solution at 540 nm±10 nm in a microtiter plate reader (spectrophotometer), using the blank as a reference.
A calculation of cell viability expressed as NRU is made for each concentration of the tested inhibitor by using the mean NRU of the three replicate values per each concentration. This value is compared with the mean NRU of all vehicle values. Relative cell viability is then expressed as percent of untreated vehicle control (DMSO).
Normal human keratinocytes were seeded in a 96-well tissue culture plate. At 20% of confluence, molecules were added in the culture medium and incubated for 48 h. Neutral red medium was added to every well for an incubation period of 3 h, then the dye was extracted with acidified ethanol solution. Data (FIGS. 2 and 3) represent the mean cell viability after treatment +/−SD compared to mean viability of cells treated with the vehicle only (DMSO). Data represent the mean of 5 individual experiments.

KLK5 = target: T1, KLK5 (Homo sapiens, UniProt Q9Y337); assay: KLK5 enzyme inhibition assay, fluorogenic substrate Boc-Val-Pro-Arg-AMC; assay type: biochemical; conditions: 37° C., 15 min of incubation, pH 8
T1 sequence (Q9Y337 23-293): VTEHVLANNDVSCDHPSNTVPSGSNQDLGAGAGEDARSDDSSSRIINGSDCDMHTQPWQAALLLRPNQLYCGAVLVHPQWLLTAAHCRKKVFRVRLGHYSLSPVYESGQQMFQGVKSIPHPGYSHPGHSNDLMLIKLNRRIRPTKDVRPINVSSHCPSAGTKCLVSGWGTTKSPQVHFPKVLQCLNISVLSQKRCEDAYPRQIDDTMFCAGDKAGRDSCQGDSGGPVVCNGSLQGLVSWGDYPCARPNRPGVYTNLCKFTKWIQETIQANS
Experimental: (§1) Kallikreins KLK5, KLK7 and KLK14 activities were determined by monitoring the hydrolysis of the appropriate fluorogenic substrate (λexc=355, λem=460 nm) for 15 min at 37° C. in the presence of the untreated kallikrein (control) or kallikrein that had been incubated with a test compound. Substrate and compounds were previously dissolved in DMSO, with the final solvent concentration kept constant at 2% (v/v) (KLK 5 and 14), and 4% (v/v) (KLK7). The composition of the activity buffers (pH 8.0) was 100 mM Tris-HCl, 150 mM NaCl, 0.01% (v/v) Tween 20 for the KLK5 assay, and 100 mM Tris-HCl, 1M NaCl, 0.01% (v/v) Tween 20 in the KLK 7 and 14 assays. The final concentrations were 0.6 nM (KLK5) and 100 μM (Boc-Val-Pro-Arg-AMC) (KLK5 assay), 8 nM (KLK7) and 40 μM (Suc-Leu-Leu-Val-Tyr-AMC, AMC: 7-amino-4-methyl-coumarin) (KLK7 assay), and 0.17 nM (KLK14) and 10 μM (Boc-Val-Pro-Arg-AMC) (KLK14 assay). Using the appropriate substrate, the coumarinic compounds (0.01-100 μM) were tested in duplicate for each inhibitor concentration to detect their inhibitory potential. The enzyme and the inhibitors were incubated for 15 min before the determination of the enzyme activity. Initial rates determined in control experiments (V0) were considered to be 100% of the peptidase activity; initial rates below 100% were considered to be inhibitions. The inhibitory activity of compounds was expressed as IC50 (inhibitor concentrations giving 50% inhibition). The values of IC50 were calculated by fitting the experimental data to the equation: % Inhibition=100×(1−Vi/V0)=100[I]0/(IC50+[I]0), or equation: % Inhibition=100[I]0^nH/(IC50^nH+[I]0^nH),nH is the Hill number.
(§2) The tests were realized at 37° C. after 15 min of incubation at pH 8.

KLK7 = KLK7 (Homo sapiens, UniProt P49862); assay: KLK7 enzyme inhibition assay, fluorogenic substrate Suc-Leu-Leu-Val-Tyr-AMC; assay type: biochemical; conditions: for IC50: 37° C., 15 min of incubation, pH 8; for selective activity against enzyme: KLK7: Table B, among KLK5, KLK7 and KLK14
Experimental: as §1, §2

KLK14 = target: T2, KLK14 (Homo sapiens, UniProt Q9P0G3); assay: KLK14 enzyme inhibition assay, fluorogenic substrate Boc-Val-Pro-Arg-AMC; assay type: biochemical; conditions: for inhibition at 50 µM / inhibition at 100 µM / IC50: 37° C., 15 min of incubation, pH 8
T2 sequence (Q9P0G3 25-251): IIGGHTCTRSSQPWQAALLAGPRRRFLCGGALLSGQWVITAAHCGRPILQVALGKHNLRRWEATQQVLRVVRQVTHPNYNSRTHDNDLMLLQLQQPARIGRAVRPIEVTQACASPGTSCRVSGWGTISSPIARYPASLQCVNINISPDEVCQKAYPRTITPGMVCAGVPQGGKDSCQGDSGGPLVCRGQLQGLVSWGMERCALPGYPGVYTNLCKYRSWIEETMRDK
Experimental: as §1, §2

[2] = test system: keratinocytes from a Netherton syndrome patient (NSK); assay: Expression of pro-allergic and inflammatory molecules (indirect KLK5 activity) in Netherton syndrome patient keratinocytes; assay type: cell-based, human; conditions: 72 h, relative to HPRT
Experimental: 250,000 keratinocytes from a Netherton syndrome patient (NSK) were seeded in 6 well plates in 2 mL of medium made of: (a) half of complete Green medium: (Dulbecco's Modified Eagle Media) 60%; Ham's F12 30%; FCS 10%; adenin […]; insulin 5 μg/mL; hydrocortisone 0.4 μg/mL; cholera toxin 10 nM; triiodothyronin 2 nM; human recombinant EGF 10 ng/mL; penicillin G/streptomycin 100 U/mL; (b) half of a basal medium (Epilife—Cascade Biologics).
When confluent, cells were washed 5 times with PBS and 2 mL of complete Green medium without FCS (fetal calf serum) were added per well.
Inhibitors were added in the culture medium 24 h after medium renewal.
350 μL of RLT lysis buffer (Mini Kit QIAGEN)+β-mercapto-ethanol (0.1%) were added per well to extract total RNA. The cell lysate was kept at −80° C. before RNA extraction (Mini Kit QIAGEN).
In this in cellulo test, KLK5 activity was evaluated by an indirect method. Indeed KLK5 induces TSLP (thymic stromal lymphopoietin), TNFα (tumor necrosis factor alpha) and IL-8 (interleukin 8) expression. If KLK5 activity is inhibited, the expression of these cytokines will be reduced.
The relative amount of TSLP, TNFα and IL-8 transcripts [relative to HPRT (hypoxanthine phosphoribosyltransferase 1) housekeeping gene] was compared between cells treated or not treated with the inhibitors. The ratio <<treated/not treated>> relative to housekeeping gene reflects KLK5 inhibition.
Their expression had also been studied even if their mechanism of induction is not known yet.
The effect of LP73 and CFL33 on the expression of the described pro-allergic and inflammatory cytokines was analyzed on keratinocytes from two different NS patients. Each experiment was performed twice (FIG. 4).

[3] = Table A2, read-out: IC50 (nM) KLK7
[4] = Table A, read-out: IC50 (μM) KLK7
[5] = Table A, read-out: IC50 (μM) KLK14

KLK7, sequence (P49862 30-253): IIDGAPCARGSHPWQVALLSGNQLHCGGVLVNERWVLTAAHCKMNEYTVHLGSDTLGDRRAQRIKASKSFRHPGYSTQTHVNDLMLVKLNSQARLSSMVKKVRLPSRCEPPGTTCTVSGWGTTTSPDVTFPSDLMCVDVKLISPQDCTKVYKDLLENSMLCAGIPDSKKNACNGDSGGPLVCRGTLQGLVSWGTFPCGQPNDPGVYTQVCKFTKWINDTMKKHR

Row | SMILES | cytotoxicity, neutral red uptake test [1] | IC50 (KLK7; [4]) [nM] | selective activity against enzyme: KLK7 (KLK7) | inhibition at 100 µM (KLK14) [%] | other results
1 | O=C(Oc1ccccc1)c1cc2cc(CBr)ccc2oc1=O [JFR5, Phenyl 6-bromomethyl-2-oxo-2H-1-benzopyran-3-carboxylate] | – | – | – | – | cytotoxicity, neutral red uptake test (FIG. 5) [1]: No noticeable cytotoxicity; inhibition at 50 µM (KLK5): 34%; IC50 (KLK7; [3]): 249 ± 3.5 nM; inhibition at 50 µM (KLK14): 53%
2 | COC(=O)c1cccc(OC(=O)c2cc3cc(CCl)ccc3oc2=O)c1 [IK2] | No noticeable cytotoxicity | 680 ± 10 | KLK7 | 67 | –
3 | O=C(Oc1cccnc1)c1cc2cc(CCl)ccc2oc1=O [MFS33] | No noticeable cytotoxicity | – | – | 60 | inhibition at 100 µM (KLK5): 62%; IC50 (KLK7; [3]): 5.7 ± 0.3 nM
4 | O=C(Oc1cccc(Br)c1)c1cc2cc(CBr)ccc2oc1=O [JFR8, 3-Bromophenyl 6-bromomethyl-2-oxo-2H-1-benzopyran-3-carboxylate] | – | – | KLK7 | – | cytotoxicity, neutral red uptake test (FIG. 5) [1]: No noticeable cytotoxicity; IC50 (KLK5; Table A2, read-out: IC50 (nM) KLK5): 1470 ± 60 nM; IC50 (KLK7; [3]): 57 ± 2 nM; IC50 (KLK14; Table A2, read-out: IC50 (nM) KLK14): 3000 ± 100 nM
5 | O=C(Sc1ccccc1)c1cc2cc(CCl)ccc2oc1=O [LP41] | No noticeable cytotoxicity | 390 ± 30 | – | 67 | inhibition at 100 µM (KLK5): 32%
6 | O=C(Oc1cc(F)ccc1F)c1cc2cc(CCl)ccc2oc1=O [CFL5] | No noticeable cytotoxicity | 500 ± 40 | – | – | inhibition at 100 µM (KLK5): 35%; IC50 (KLK14; [5]): 39000 ± 4000 nM
7 | O=C(Oc1ccc(Cl)cc1)c1cc2cc(CCl)ccc2oc1=O [LP7] | No noticeable cytotoxicity | 463 ± 7 | – | – | –
8 | O=C(Oc1cccc(F)c1)c1cc2cc(CBr)ccc2oc1=O [JFR11, 3-Fluorophenyl 6-bromomethyl-2-oxo-2H-1-benzopyran-3-carboxylate] | – | – | – | – | cytotoxicity, neutral red uptake test (FIG. 5) [1]: No noticeable cytotoxicity; inhibition at 50 µM (KLK5): 42%; IC50 (KLK7; [3]): 198 ± 8 nM; inhibition at 50 µM (KLK14): 48%
9 | O=C(Oc1cccc(I)c1)c1cc2cc(CCl)ccc2oc1=O [LP14] | No noticeable cytotoxicity | 77 ± 3 | KLK7 | 70 | inhibition at 100 µM (KLK5): 48%
10 | NC(=O)c1cccc(OC(=O)c2cc3cc(CCl)ccc3oc2=O)c1 [IK4] | No noticeable cytotoxicity | 7800 ± 600 | – | – | IC50 (KLK5; Table A, read-out: IC50 (μM) KLK5): 21600 ± 5000 nM; IC50 (KLK14; [5]): 30000 ± 8000 nM
11 | O=C(Oc1cccc(Br)c1)c1cc2cc(CCl)ccc2oc1=O [LP53] | No noticeable cytotoxicity | 65 ± 3 | KLK7 | 41 | inhibition at 50 µM (KLK5): 34%
12 | NC(=O)c1ccccc1OC(=O)c1cc2cc(CCl)ccc2oc1=O [IK3] | – | – | – | 77 | Toxicity, neutral red uptake test ([1]; 1 μM): 16.09±8.32%; Toxicity, neutral red uptake test ([1]; 10 μM): 47.1±4.43%; selective activity against enzyme: KLK14 (KLK14; Table B, among KLK5, KLK7 and KLK14): KLK14
13 | O=C(Oc1ccccc1)c1cc2cc(CCl)ccc2oc1=O [MFS7] | No noticeable cytotoxicity | 235 ± 9 | KLK7 | 45 | inhibition at 50 µM (KLK5): 26%
14 | O=C(Oc1cccc(Cl)c1Cl)c1cc2cc(CCl)ccc2oc1=O [LP73] | No noticeable cytotoxicity | 63 ± 4 | KLK7 | – | expression of IL-8 ([2]; 1 μM): significantly inhibited; expression of MDC ([2]; 1 μM): significantly inhibited; expression of TARC ([2]; 1 μM): significantly inhibited; expression of TNFα ([2]; 1 μM): significantly inhibited; expression of TSLP ([2]; 1 μM): significantly inhibited; expression of TARC ([2]; 10 μM): inhibited; expression of TSLP ([2]; 10 μM): inhibited
15 | COc1cc(Cl)cc(OC(=O)c2cc3cc(CCl)ccc3oc2=O)c1 [LP61] | No noticeable cytotoxicity | 130 ± 5 | – | – | –
16 | COc1cccc(OC(=O)c2cc3cc(CCl)ccc3oc2=O)c1 [LP55] | No noticeable cytotoxicity | 8400 ± 200 | KLK7 | – | –
